In patent US11306079B2, “3-(5-amino-pyrazin-2-yl)-benzenesulfonamide derivatives and related compounds as PI3K-gamma kinase inhibitors” (Incyte Corporation, priority 2017, dated 2022):
Where a name gives a salt, the structure may show the parent alone.

Assays:
[1] = biological target: PI3Kδ (p110δ/p85α) Recombinant Human Protein (Homo sapiens (Human), UniProt O00329); experiment: PI3Kδ Scintillation Proximity Assay; format: biochemical; conditions: 20 μM PIP2, 2 μM ATP, 3.4 nM PI3Kδ, 120 min, room temperature
How it was run: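 Radiometric read-out: 33P-labelled PIP3 product captured on WGA SPA beads and counted, with IC50 fitted from percent activity relative to DMSO control. Enzyme (3.4 nM) was incubated 120 min at room temperature with 20 μM PIP2 and 2 μM ATP at pH 6.7, 2% DMSO.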

[2] = biological target: PI3Kγ (p110γ) Recombinant Human Protein (Homo sapiens (Human), UniProt P48736); experiment: PI3K-γ Scintillation Proximity Assay; format: biochemical; conditions: 20 μM PIP2, 2 μM ATP, 13 nM PI3Kγ, 120 min, room temperature
How it was run: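 Recombinant human p110γ (13 nM) phosphorylated 20 μM PIP2 with 2 μM ATP plus [γ-33P]ATP in 20 mM MOPS pH 6.7, 10 mM MgCl2, 5 mM DTT, 0.03% CHAPS, 2% DMSO, 120 min at room temperature. Radiolabelled product was captured on WGA SPA beads and counted. IC50 came from curves of percent solvent-control activity.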

[3] = system: Phosphorylated Ribosomal Protein S6 (RPS6) in THP-1 cells; experiment: THP-1 RPS6 ELISA Assay; format: cell-based; conditions: Homo sapiens; serum starved THP-1 cells, 2 hours with compound, 10 nM MCP-1 for 15 minutes, Phospho-RPS6 ELISA; read-out: PI3Kγ_THP1_RPS6_ELISA IC50
How it was run: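 Phospho-RPS6 in lysates measured by ELISA at 450 nm, corrected at 540 nm, after MCP-1 challenge (10 nM, 15 min) of THP-1 cells that were starved overnight and exposed to test compound for 2 h at 37° C, 2×10^5 cells/well. Curve fit of percent inhibition gives IC50.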

Sequence of PI3Kδ (p110δ/p85α) Recombinant Human Protein (O00329 whole entry): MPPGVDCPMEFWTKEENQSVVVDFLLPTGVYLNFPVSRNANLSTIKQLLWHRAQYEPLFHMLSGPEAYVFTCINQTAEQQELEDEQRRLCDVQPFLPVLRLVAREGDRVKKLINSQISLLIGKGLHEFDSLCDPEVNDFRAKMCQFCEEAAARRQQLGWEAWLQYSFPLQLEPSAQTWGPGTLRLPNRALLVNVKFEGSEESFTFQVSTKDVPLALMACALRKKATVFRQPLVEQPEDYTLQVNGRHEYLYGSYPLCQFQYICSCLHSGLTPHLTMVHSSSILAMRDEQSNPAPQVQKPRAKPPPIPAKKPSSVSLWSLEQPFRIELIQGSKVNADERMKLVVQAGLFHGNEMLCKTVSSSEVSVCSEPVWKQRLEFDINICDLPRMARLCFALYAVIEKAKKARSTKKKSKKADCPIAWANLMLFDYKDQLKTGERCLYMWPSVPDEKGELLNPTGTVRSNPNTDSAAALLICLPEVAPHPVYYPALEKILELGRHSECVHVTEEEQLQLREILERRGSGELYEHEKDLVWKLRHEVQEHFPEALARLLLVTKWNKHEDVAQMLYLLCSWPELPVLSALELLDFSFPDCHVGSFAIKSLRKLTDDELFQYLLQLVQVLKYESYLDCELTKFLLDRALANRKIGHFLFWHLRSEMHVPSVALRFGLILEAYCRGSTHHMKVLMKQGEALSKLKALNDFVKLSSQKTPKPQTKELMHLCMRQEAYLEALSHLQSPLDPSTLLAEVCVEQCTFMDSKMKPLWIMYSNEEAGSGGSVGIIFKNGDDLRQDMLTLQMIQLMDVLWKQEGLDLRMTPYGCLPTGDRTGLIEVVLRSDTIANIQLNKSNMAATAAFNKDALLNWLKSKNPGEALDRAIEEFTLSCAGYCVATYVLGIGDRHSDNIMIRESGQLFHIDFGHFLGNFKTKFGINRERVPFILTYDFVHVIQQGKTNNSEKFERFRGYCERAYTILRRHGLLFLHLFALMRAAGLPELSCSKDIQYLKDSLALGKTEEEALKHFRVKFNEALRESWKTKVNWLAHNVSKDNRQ
Sequence of PI3Kδ (p110δ/p85α) Recombinant Human Protein (P27986 whole entry partner): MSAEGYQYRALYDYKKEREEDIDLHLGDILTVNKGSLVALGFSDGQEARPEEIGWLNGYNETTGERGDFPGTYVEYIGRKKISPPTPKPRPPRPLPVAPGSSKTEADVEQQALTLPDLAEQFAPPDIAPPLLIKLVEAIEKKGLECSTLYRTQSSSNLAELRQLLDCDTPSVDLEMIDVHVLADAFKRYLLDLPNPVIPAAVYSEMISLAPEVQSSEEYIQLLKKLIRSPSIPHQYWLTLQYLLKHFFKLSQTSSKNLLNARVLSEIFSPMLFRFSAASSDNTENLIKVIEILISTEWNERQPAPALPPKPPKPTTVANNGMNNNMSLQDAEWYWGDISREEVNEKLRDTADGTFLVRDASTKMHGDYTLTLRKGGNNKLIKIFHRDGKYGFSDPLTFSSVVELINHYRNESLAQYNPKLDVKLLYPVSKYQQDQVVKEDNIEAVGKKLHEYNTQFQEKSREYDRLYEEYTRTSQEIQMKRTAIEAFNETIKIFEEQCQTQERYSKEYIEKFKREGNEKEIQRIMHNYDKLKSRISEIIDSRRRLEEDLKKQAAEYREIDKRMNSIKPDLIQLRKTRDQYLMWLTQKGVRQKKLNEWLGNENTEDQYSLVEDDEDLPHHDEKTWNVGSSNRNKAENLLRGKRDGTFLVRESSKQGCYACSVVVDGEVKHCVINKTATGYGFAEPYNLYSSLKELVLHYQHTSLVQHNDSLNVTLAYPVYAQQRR
Sequence of PI3Kγ (p110γ) Recombinant Human Protein (P48736 whole entry): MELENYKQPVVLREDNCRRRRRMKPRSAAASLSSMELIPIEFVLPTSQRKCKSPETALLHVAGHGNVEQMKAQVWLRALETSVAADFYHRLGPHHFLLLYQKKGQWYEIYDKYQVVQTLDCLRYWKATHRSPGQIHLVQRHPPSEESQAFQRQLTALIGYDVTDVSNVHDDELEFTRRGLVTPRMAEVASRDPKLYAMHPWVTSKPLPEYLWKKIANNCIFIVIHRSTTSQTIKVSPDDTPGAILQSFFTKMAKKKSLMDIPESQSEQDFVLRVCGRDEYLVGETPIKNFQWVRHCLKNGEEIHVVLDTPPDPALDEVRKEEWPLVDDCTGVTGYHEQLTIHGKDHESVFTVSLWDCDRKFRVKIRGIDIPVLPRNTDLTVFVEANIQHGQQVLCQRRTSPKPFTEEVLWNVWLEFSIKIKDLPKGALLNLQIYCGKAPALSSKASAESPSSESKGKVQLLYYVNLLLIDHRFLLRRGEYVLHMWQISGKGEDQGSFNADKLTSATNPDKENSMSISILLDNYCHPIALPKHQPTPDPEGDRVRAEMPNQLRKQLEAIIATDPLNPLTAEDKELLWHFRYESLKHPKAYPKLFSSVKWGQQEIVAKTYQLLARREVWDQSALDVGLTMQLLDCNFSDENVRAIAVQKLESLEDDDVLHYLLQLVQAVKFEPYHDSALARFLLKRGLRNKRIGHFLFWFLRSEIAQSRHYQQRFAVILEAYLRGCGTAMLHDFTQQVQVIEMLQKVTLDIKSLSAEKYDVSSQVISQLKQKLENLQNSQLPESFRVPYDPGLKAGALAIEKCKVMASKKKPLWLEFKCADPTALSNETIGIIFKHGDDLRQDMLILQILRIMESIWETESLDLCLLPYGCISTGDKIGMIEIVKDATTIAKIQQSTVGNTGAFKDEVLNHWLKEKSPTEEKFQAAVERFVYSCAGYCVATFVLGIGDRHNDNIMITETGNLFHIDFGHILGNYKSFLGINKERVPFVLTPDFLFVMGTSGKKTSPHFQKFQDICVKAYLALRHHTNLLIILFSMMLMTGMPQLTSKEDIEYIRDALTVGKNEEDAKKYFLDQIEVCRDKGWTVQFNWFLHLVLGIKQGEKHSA

CCOC(=O)NC12CC(NS(=O)(=O)c3ccc(C)c(-c4cnc(N)c(-n5cncn5)n4)c3)(C1)C2 [Example 39, Ethyl 3-(3-(5-amino-6-(1H-1,2,4-triazol-1-yl)pyrazin-2-yl)-4-methylphenylsulfonamido)bicyclo[1.1.1]pentan-1-ylcarbamate Trifluoroacetate Salt]
IC50 [1]: ≤ 0.5 µM
IC50 [2]: ≤ 0.1 µM
IC50 [3]: ≤ 0.5 µM

CC(=O)NC12CC(NS(=O)(=O)c3ccc(C)c(-c4cnc(N)c(-n5cncn5)n4)c3)(C1)C2 [Example 40, N-(3-(3-(5-Amino-6-(1H-1,2,4-triazol-1-yl)pyrazin-2-yl)-4-methylphenylsulfonamido)bicyclo[1.1.1]pentan-1-yl)acetamide Trifluoroacetate Salt]
IC50 [1]: ≤ 0.5 µM
IC50 [2]: ≤ 0.1 µM
IC50 [3]: ≤ 1 µM

Cc1ccc(S(=O)(=O)NC23CC(C#N)(C2)C3)cc1-c1cnc(N)c(-n2nccn2)n1 [Example 41, 3-(5-Amino-6-(2H-1,2,3-triazol-2-yl)pyrazin-2-yl)-N-(3-cyanobicyclo[1.1.1]pentan-1-yl)-4-methylbenzenesulfonamide Trifluoroacetate Salt]
IC50 [1]: ≤ 0.1 µM
IC50 [2]: ≤ 0.1 µM
IC50 [3]: ≤ 0.1 µM

Cc1ccc(S(=O)(=O)NC23CCC(C#N)(C2)C3)cc1-c1cnc(N)c(-n2nccn2)n1 [Example 42, 3-(5-Amino-6-(2H-1,2,3-triazol-2-yl)pyrazin-2-yl)-N-(4-cyanobicyclo[2.1.1]hexan-1-yl)-4-methylbenzenesulfonamide Trifluoroacetate Salt]
IC50 [1]: ≤ 0.5 µM
IC50 [2]: ≤ 0.1 µM
IC50 [3]: ≤ 0.1 µM

Cc1ccc(S(=O)(=O)NC23CC(C#N)(C2)C3)cc1-c1cnc(N)c(-n2ccnn2)n1 [Example 43, 3-(5-Amino-6-(1H-1,2,3-triazol-1-yl)pyrazin-2-yl)-N-(3-cyanobicyclo[1.1.1]pentan-1-yl)-4-methylbenzenesulfonamide Trifluoroacetate Salt]
IC50 [1]: ≤ 0.5 µM
IC50 [2]: ≤ 0.1 µM
IC50 [3]: ≤ 0.1 µM

Cc1ccc(S(=O)(=O)NC23CCC(C#N)(C2)C3)cc1-c1cnc(N)c(-n2ccnn2)n1 [Example 44, 3-(5-Amino-6-(1H-1,2,3-triazol-1-yl)pyrazin-2-yl)-N-(4-cyanobicyclo[2.1.1]hexan-1-yl)-4-methylbenzenesulfonamide Trifluoroacetate Salt]
IC50 [1]: ≤ 0.1 µM
IC50 [2]: ≤ 0.1 µM
IC50 [3]: ≤ 0.1 µM

Cc1ccc(S(=O)(=O)NC23CC(C#N)(C2)C3)cc1-c1cnc(N)c(-c2ncn(C)n2)n1 [Example 45, 3-(5-Amino-6-(1-methyl-1H-1,2,4-triazol-3-yl)pyrazin-2-yl)-N-(3-cyanobicyclo[1.1.1]pentan-1-yl)-4-methylbenzenesulfonamide Trifluoroacetate Salt]
IC50 [1]: ≤ 0.5 µM
IC50 [2]: ≤ 0.1 µM
IC50 [3]: ≤ 0.5 µM

Cc1ccc(S(=O)(=O)NC23CCC(C#N)(C2)C3)cc1-c1cnc(N)c(-c2ncn(C)n2)n1 [Example 46, 3-(5-Amino-6-(1-methyl-1H-1,2,4-triazol-3-yl)pyrazin-2-yl)-N-(4-cyanobicyclo[2.1.1]hexan-1-yl)-4-methylbenzenesulfonamide Trifluoroacetate Salt]
IC50 [1]: ≤ 0.1 µM
IC50 [2]: ≤ 0.1 µM
IC50 [3]: ≤ 0.5 µM

[2H]C([2H])([2H])c1ccc(S(=O)(=O)NC23CCC(O)(CC2)C3)cc1-c1cnc(N)c(-n2cncn2)n1 [Example 47, 3-(5-Amino-6-(1H-1,2,4-triazol-1-yl)pyrazin-2-yl)-N-(4-hydroxybicyclo[2.2.1]heptan-1-yl)-4-(methyl-d3)benzenesulfonamide Trifluoroacetate Salt]
IC50 [1]: ≤ 0.1 µM
IC50 [2]: ≤ 0.1 µM
IC50 [3]: ≤ 0.1 µM

[2H]C([2H])([2H])c1ccc(S(=O)(=O)NC23CC(C#N)(C2)C3)cc1-c1cnc(N)c(-n2cncn2)n1 [Example 48, 3-(5-Amino-6-(1H-1,2,4-triazol-1-yl)pyrazin-2-yl)-N-(3-cyanobicyclo[1.1.1]pentan-1-yl)-4-(methyl-d3)benzenesulfonamide Trifluoroacetate Salt]
IC50 [1]: ≤ 0.5 µM
IC50 [2]: ≤ 0.1 µM
IC50 [3]: ≤ 0.1 µM

[2H]C([2H])([2H])c1ccc(S(=O)(=O)NC23CC(CO)(C2)C3)cc1-c1cnc(N)c(-n2cncn2)n1 [Example 49, 3-(5-Amino-6-(1H-1,2,4-triazol-1-yl)pyrazin-2-yl)-N-(3-(hydroxymethyl)bicyclo[1.1.1]pentan-1-yl)-4-(methyl-d3)benzenesulfonamide Trifluoroacetate Salt]
IC50 [1]: ≤ 0.1 µM
IC50 [2]: ≤ 0.1 µM
IC50 [3]: ≤ 0.5 µM

[2H]C([2H])([2H])c1ccc(S(=O)(=O)NC23CC(C#N)(C2)C3)cc1-c1cnc(N)c(-n2nccn2)n1 [Example 50, 3-(5-Amino-6-(2H-1,2,3-triazol-2-yl)pyrazin-2-yl)-N-(3-cyanobicyclo[1.1.1]pentan-1-yl)-4-(methyl-d3)benzenesulfonamide Trifluoroacetate Salt]
IC50 [1]: ≤ 0.1 µM
IC50 [2]: ≤ 0.1 µM
IC50 [3]: ≤ 0.5 µM

O=C(O)C(F)(F)F.[2H]C([2H])([2H])c1ccc(S(=O)(=O)NC23CNC(C2)C3)cc1-c1cnc(N)c(-c2cnc(C)s2)n1 [Example 54, 3-(5-Amino-6-(2-methylthiazol-5-yl)pyrazin-2-yl)-N-(2-azabicyclo[2.1.1]hexan-4-yl)-4-(methyl-d3)benzenesulfonamide trifluoroacetate salt]
IC50 [1]: ≤ 0.1 µM
IC50 [2]: ≤ 0.1 µM
IC50 [3]: ≤ 0.5 µM

O=C(O)C(F)(F)F.[2H]C([2H])([2H])c1ccc(S(=O)(=O)NC23CNC(C2)C3)cc1-c1cnc(N)c(-c2cnc(C3CC3)s2)n1 [Example 55, 3-(5-Amino-6-(2-cyclopropylthiazol-5-yl)pyrazin-2-yl)-N-(2-azabicyclo[2.1.1]hexan-4-yl)-4-(methyl-d3)benzenesulfonamide trifluoroacetate salt]
IC50 [1]: ≤ 0.1 µM
IC50 [2]: ≤ 0.1 µM
IC50 [3]: ≤ 0.5 µM

O=C(O)C(F)(F)F.[2H]C([2H])([2H])c1ccc(S(=O)(=O)NC23CNC(C2)C3)cc1-c1cnc(N)c(-c2cnco2)n1 [Example 56, 3-(5-Amino-6-(oxazol-5-yl)pyrazin-2-yl)-N-(2-azabicyclo[2.1.1]hexan-4-yl)-4-(methyl-d3)benzenesulfonamide trifluoroacetate salt]
IC50 [1]: ≤ 0.5 µM
IC50 [2]: ≤ 0.1 µM
IC50 [3]: ≤ 1 µM

Cc1ccc(S(=O)(=O)NC23CNC(C2)C3)cc1-c1cnc(N)c(-c2ncn(C)n2)n1 [Example 57, 3-(5-Amino-6-(1-methyl-1H-1,2,4-triazol-3-yl)pyrazin-2-yl)-N-(2-azabicyclo[2.1.1]hexan-4-yl)-4-methylbenzenesulfonamide trifluoroacetate salt]
IC50 [1]: ≤ 0.1 µM
IC50 [2]: ≤ 0.1 µM
IC50 [3]: ≤ 0.5 µM

Cc1ccc(S(=O)(=O)NC23CNC(C2)C3)cc1-c1cnc(N)c(-n2cccn2)n1 [Example 58, 3-(5-Amino-6-(1H-pyrazol-1-yl)pyrazin-2-yl)-N-(2-azabicyclo[2.1.1]hexan-4-yl)-4-methylbenzenesulfonamide trifluoroacetate salt]
IC50 [1]: ≤ 0.5 µM
IC50 [2]: ≤ 0.1 µM
IC50 [3]: ≤ 1 µM

Cc1ccc(S(=O)(=O)NC23CNC(C2)C3)cc1-c1cnc(N)c(-n2ccnn2)n1 [Example 59, 3-(5-amino-6-(1H-1,2,3-triazol-1-yl)pyrazin-2-yl)-N-(2-azabicyclo[2.1.1]hexan-4-yl)-4-methylbenzenesulfonamide trifluoroacetate salt]
IC50 [1]: ≤ 0.5 µM
IC50 [2]: ≤ 0.1 µM
IC50 [3]: ≤ 1 µM

[2H]C([2H])([2H])c1ccc(S(=O)(=O)NC23COC(CO)(C2)C3)cc1-c1cnc(N)c(-c2cnc(C3CC3)s2)n1 [Example 61, 3-(5-Amino-6-(2-cyclopropylthiazol-5-yl)pyrazin-2-yl)-N-(1-(hydroxymethyl)-2-oxabicyclo[2.1.1]hexan-4-yl)-4-(methyl-d3)benzenesulfonamide Trifluoroacetate Salt]
IC50 [1]: ≤ 0.1 µM
IC50 [2]: ≤ 0.1 µM
IC50 [3]: ≤ 0.1 µM

Cc1ccc(S(=O)(=O)NC23CCC(C#N)(C2)C3)cc1-c1cnc(N)c(-n2cccn2)n1 [Example 62, 3-(5-Amino-6-(1H-pyrazol-1-yl)pyrazin-2-yl)-N-(4-cyanobicyclo[2.1.1]hexan-1-yl)-4-methylbenzenesulfonamide Trifluoroacetate Salt]
IC50 [1]: ≤ 0.1 µM
IC50 [2]: ≤ 0.1 µM
IC50 [3]: ≤ 0.1 µM

[2H]C([2H])([2H])c1ccc(S(=O)(=O)NC23CCC(C#N)(C2)C3)cc1-c1cnc(N)c(-c2ccn(C)n2)n1 [Example 63, 3-(5-Amino-6-(1-methyl-1H-pyrazol-3-yl)pyrazin-2-yl)-N-(4-cyanobicyclo[2.1.1]hexan-1-yl)-4-(methyl-d3)benzenesulfonamide Trifluoroacetate Salt]
IC50 [1]: ≤ 0.1 µM
IC50 [2]: ≤ 0.1 µM
IC50 [3]: ≤ 0.1 µM

[2H]C([2H])([2H])c1ccc(S(=O)(=O)NC23CCC(C#N)(C2)C3)cc1-c1cnc(N)c(-c2cnc(C)s2)n1 [Example 65, 3-(5-Amino-6-(2-methylthiazol-5-yl)pyrazin-2-yl)-N-(4-cyanobicyclo[2.1.1]hexan-1-yl)-4-(methyl-d3)benzenesulfonamide trifluoroacetate salt]
IC50 [1]: ≤ 0.1 µM
IC50 [2]: ≤ 0.1 µM
IC50 [3]: ≤ 0.1 µM
